Data from ChEMBL document CHEMBL4004838, “Design and synthesis of novel phenyl -1, 4-beta-carboline-hybrid molecules as potential anticancer agents” (Eur J Med Chem, 2017).

How the values were obtained:
Type in all cases: functional
SF-295 = assay: Growth inhibition of human SF295 cells incubated for 48 hrs by sulforhodamine B assay; conditions: SF-295, 48 h
RXF 393 = assay: Growth inhibition of human RXF393 cells incubated for 48 hrs by sulforhodamine B assay; conditions: RXF 393, 48 h
Hs-578T = assay: Growth inhibition of human Hs 578T cells assessed as cell growth at 1 uM incubated for 48 hrs by sulforhodamine B assay relative to control; conditions: read-out: Activity
UO-31 = assay: Growth inhibition of human UO31 cells assessed as cell growth at 0.1 uM incubated for 48 hrs by sulforhodamine B assay relative to control; conditions: UO-31, 48 h, read-out: Activity
EKVX = assay: Growth inhibition of human EKVX cells assessed as cell growth at 100 uM incubated for 48 hrs by sulforhodamine B assay relative to control; conditions: read-out: Activity
786-0 = assay: Growth inhibition of human 786-0 cells assessed as cell growth at 1 uM incubated for 48 hrs by sulforhodamine B assay relative to control; conditions: 786-0, 48 h, read-out: Activity
HOP-62 = assay: Growth inhibition of human HOP62 cells incubated for 48 hrs by sulforhodamine B assay; conditions: HOP-62, 48 h
CCRF-CEM = assay: Growth inhibition of human CCRF-CEM cells assessed as cell growth at 100 uM incubated for 48 hrs by sulforhodamine B assay relative to control; conditions: read-out: Activity
ACHN = assay: Growth inhibition of human ACHN cells incubated for 48 hrs by sulforhodamine B assay
MOLT-4 = assay: Growth inhibition of human MOLT4 cells assessed as cell growth at 0.1 uM incubated for 48 hrs by sulforhodamine B assay relative to control; conditions: MOLT-4, 48 h, read-out: Activity
OVCAR-3 = assay: Growth inhibition of human OVCAR3 cells assessed as cell growth at 100 uM incubated for 48 hrs by sulforhodamine B assay relative to control; conditions: OVCAR-3, 48 h, read-out: Activity
SK-MEL-5 = assay: Growth inhibition of human SK-MEL-5 cells assessed as cell growth at 0.1 uM incubated for 48 hrs by sulforhodamine B assay relative to control; conditions: SK-MEL-5, 48 h, read-out: Activity
CAKI-1 = assay: Growth inhibition of human Caki1 cells assessed as cell growth at 1 uM incubated for 48 hrs by sulforhodamine B assay relative to control; conditions: CAKI-1, 48 h, read-out: Activity
HL-60(TB) = assay: Growth inhibition of human HL-60(TB) cells assessed as cell growth at 0.1 uM incubated for 48 hrs by sulforhodamine B assay relative to control; conditions: HL-60, 48 h, read-out: Activity
RPMI-8226 = assay: Growth inhibition of human RPMI8226 cells assessed as cell growth at 0.1 uM incubated for 48 hrs by sulforhodamine B assay relative to control; conditions: RPMI-8226, 48 h, read-out: Activity
COLO 205 [1] = assay: Growth inhibition of human COLO205 cells assessed as cell growth at 1 uM incubated for 48 hrs by sulforhodamine B assay relative to control; conditions: COLO 205, 48 h, read-out: Activity
NCI-H522 = assay: Growth inhibition of human NCI-H522 cells assessed as cell growth at 0.1 uM incubated for 48 hrs by sulforhodamine B assay relative to control; conditions: NCI-H522, 48 h, read-out: Activity
A498 [2] = assay: Growth inhibition of human A498 cells assessed as cell growth at 0.1 uM incubated for 48 hrs by sulforhodamine B assay relative to control; conditions: A498, 48 h, read-out: Activity
SW-620 = assay: Growth inhibition of human SW620 cells assessed as cell growth at 1 uM incubated for 48 hrs by sulforhodamine B assay relative to control; conditions: SW-620, 48 h, read-out: Activity
A498 [3] = assay: Growth inhibition of human A498 cells assessed as cell growth at 100 uM incubated for 48 hrs by sulforhodamine B assay relative to control; conditions: A498, 48 h, read-out: Activity
HT-29 = assay: Growth inhibition of human HT-29 cells assessed as cell growth at 0.1 uM incubated for 48 hrs by sulforhodamine B assay relative to control; conditions: HT-29, 48 h, read-out: Activity
COLO 205 [4] = assay: Growth inhibition of human COLO205 cells assessed as cell growth at 0.01 uM incubated for 48 hrs by sulforhodamine B assay relative to control; conditions: COLO 205, 48 h, read-out: Activity
SNB-19 = assay: Growth inhibition of human SNB19 cells assessed as cell growth at 0.1 uM incubated for 48 hrs by sulforhodamine B assay relative to control; conditions: SNB-19, 48 h, read-out: Activity
SK-MEL-28 = assay: Growth inhibition of human SK-MEL-28 cells incubated for 48 hrs by sulforhodamine B assay; conditions: SK-MEL-28, 48 h
OVCAR-4 = assay: Growth inhibition of human OVCAR4 cells incubated for 48 hrs by sulforhodamine B assay; conditions: OVCAR-4, 48 h
SR = assay: Growth inhibition of human SR cells assessed as cell growth at 0.01 uM incubated for 48 hrs by sulforhodamine B assay relative to control; conditions: read-out: Activity
SK-OV-3 = assay: Growth inhibition of human SKOV3 cells assessed as cell growth at 100 uM incubated for 48 hrs by sulforhodamine B assay relative to control; conditions: SK-OV-3, 48 h, read-out: Activity
T47D = assay: Growth inhibition of human T47D cells assessed as cell growth at 0.1 uM incubated for 48 hrs by sulforhodamine B assay relative to control; conditions: read-out: Activity
SF-268 = assay: Growth inhibition of human SF268 cells assessed as cell growth at 100 uM incubated for 48 hrs by sulforhodamine B assay relative to control; conditions: SF-268, 48 h, read-out: Activity
NCI-H322M = assay: Growth inhibition of human NCI-H322M cells assessed as cell growth at 0.1 uM incubated for 48 hrs by sulforhodamine B assay relative to control; conditions: read-out: Activity
[5] = read-out: LC50 (the source's name)
[6] = read-out: pLC50 (the source's name) (converted)

SMILES: c1ccc2c3c([nH]c2c1)C(c1ccc(C2NCCc4c2[nH]c2ccccc42)cc1)NCC3 (racemic)
- GI50 (SF-295; read-out: GI50): 1.62 µM
- TGI (SF-295; read-out: TGI): 3.33 µM
- GI50 (SF-295; read-out: pGI50 (converted)): 1.62 µM
- TGI (SF-295; read-out: pTGI (converted)): 3.31 µM
- GI50 (RXF 393; read-out: GI50): 1.31 µM
- CC50 (RXF 393; [5]): 5.45 µM
- TGI (RXF 393; read-out: TGI): 2.67 µM
- GI50 (RXF 393; read-out: pGI50 (converted)): 1.32 µM
- CC50 (RXF 393; [6]): 5.5 µM
- TGI (RXF 393; read-out: pTGI (converted)): 2.69 µM
- growth at 1 µM (Hs-578T): 68%
- growth at 0.1 µM (UO-31): 74%
- growth at 100 µM (EKVX): 81%
- growth at 1 µM (786-0): 92%
- GI50 (HOP-62; read-out: GI50): 1.31 µM
- TGI (HOP-62; read-out: TGI): 2.79 µM
- GI50 (HOP-62; read-out: pGI50 (converted)): 1.32 µM
- TGI (HOP-62; read-out: pTGI (converted)): 2.82 µM
- growth at 100 µM (CCRF-CEM): 68%
- CC50 (ACHN; [5]): 4.58 µM
- GI50 (ACHN; read-out: pGI50 (converted)): 0.708 µM
- CC50 (ACHN; [6]): 4.57 µM
- TGI (ACHN; read-out: pTGI (converted)): 2 µM
- growth at 0.1 µM (MOLT-4): 101%
- growth at 100 µM (OVCAR-3): 82%
- growth at 0.1 µM (SK-MEL-5): 101%
- growth at 1 µM (CAKI-1): 78%
- growth at 0.1 µM (HL-60(TB)): 116%
- growth at 0.1 µM (RPMI-8226): 105%
- growth at 1 µM (COLO 205 [1]): 48%
- growth at 0.1 µM (NCI-H522): 105%
- growth at 0.1 µM (A498 [2]): 67%
- growth at 1 µM (SW-620): 86%
- growth at 100 µM (A498 [3]): -85%
- growth at 0.1 µM (HT-29): 103%
- growth at 0.01 µM (COLO 205 [4]): 95%
- growth at 0.1 µM (SNB-19): 99%
- GI50 (SK-MEL-28; read-out: GI50): 1.68 µM
- CC50 (SK-MEL-28; [5]): 5.99 µM
- TGI (SK-MEL-28; read-out: TGI): 3.18 µM
- GI50 (SK-MEL-28; read-out: pGI50 (converted)): 1.7 µM
- CC50 (SK-MEL-28; [6]): 6.03 µM
- TGI (SK-MEL-28; read-out: pTGI (converted)): 3.16 µM
- GI50 (OVCAR-4; read-out: GI50): 1.14 µM
- CC50 (OVCAR-4; [5]): 5.61 µM
- TGI (OVCAR-4; read-out: TGI): 2.53 µM
- GI50 (OVCAR-4; read-out: pGI50 (converted)): 1.15 µM
- CC50 (OVCAR-4; [6]): 5.62 µM
- TGI (OVCAR-4; read-out: pTGI (converted)): 2.51 µM
- growth at 0.01 µM (SR): 108%
- growth at 100 µM (SK-OV-3): -96%
- growth at 0.1 µM (T47D): 86%
- growth at 100 µM (SF-268): 83%
- growth at 0.1 µM (NCI-H322M): 91%

SMILES: c1ccc2[nH]c(-c3ccc(-c4nccc5c4[nH]c4ccccc45)cc3)nc2c1
- GI50 (SF-295; read-out: GI50): 1.92 µM
- LC50 (SF-295; read-out: LC50): 8.34 µM
- TGI (SF-295; read-out: TGI): 4 µM
- GI50 (SF-295; read-out: pGI50 (converted)): 1.91 µM
- LC50 (SF-295; read-out: pLC50 (converted)): 8.32 µM
- TGI (SF-295; read-out: pTGI (converted)): 3.98 µM
- GI50 (RXF 393; read-out: GI50): 1.93 µM
- CC50 (RXF 393; [5]): 6.45 µM
- TGI (RXF 393; read-out: TGI): 3.53 µM
- GI50 (RXF 393; read-out: pGI50 (converted)): 1.95 µM
- CC50 (RXF 393; [6]): 6.46 µM
- TGI (RXF 393; read-out: pTGI (converted)): 3.55 µM
- growth at 1 µM (Hs-578T): 91%
- growth at 0.1 µM (UO-31): 91%
- growth at 100 µM (EKVX): 44%
- growth at 1 µM (786-0): 89%
- GI50 (HOP-62; read-out: GI50): 2.8 µM
- LC50 (concentration killing 50% of cells) (HOP-62; read-out: LC50): 5.31 µM
- GI50 (HOP-62; read-out: pGI50 (converted)): 2.82 µM
- LC50 (concentration killing 50% of cells) (HOP-62; read-out: pLC50 (converted)): 53.7 µM
- TGI (HOP-62; read-out: pTGI (converted)): 10.7 µM
- growth at 100 µM (CCRF-CEM): 29%
- GI50 (ACHN; read-out: GI50): 2.05 µM
- CC50 (ACHN; [5]): 8.46 µM
- TGI (ACHN; read-out: TGI): 4.17 µM
- GI50 (ACHN; read-out: pGI50 (converted)): 2.04 µM
- CC50 (ACHN; [6]): 8.51 µM
- TGI (ACHN; read-out: pTGI (converted)): 4.17 µM
- growth at 0.1 µM (MOLT-4): 98%
- growth at 100 µM (OVCAR-3): 58%
- growth at 0.1 µM (SK-MEL-5): 100%
- growth at 1 µM (CAKI-1): 91%
- growth at 0.1 µM (HL-60(TB)): 92%
- growth at 0.1 µM (RPMI-8226): 105%
- growth at 1 µM (COLO 205 [1]): 93%
- growth at 0.1 µM (NCI-H522): 94%
- growth at 0.1 µM (A498 [2]): 83%
- growth at 1 µM (SW-620): 96%
- growth at 100 µM (A498 [3]): 85%
- growth at 0.1 µM (HT-29): 98%
- growth at 0.01 µM (COLO 205 [4]): 94%
- growth at 0.1 µM (SNB-19): 96%
- GI50 (SK-MEL-28; read-out: GI50): 1.96 µM
- CC50 (SK-MEL-28; [5]): 7.2 µM
- TGI (SK-MEL-28; read-out: TGI): 3.75 µM
- GI50 (SK-MEL-28; read-out: pGI50 (converted)): 1.95 µM
- CC50 (SK-MEL-28; [6]): 7.24 µM
- TGI (SK-MEL-28; read-out: pTGI (converted)): 3.72 µM
- GI50 (OVCAR-4; read-out: GI50): 2.27 µM
- TGI (OVCAR-4; read-out: TGI): 7.75 µM
- GI50 (OVCAR-4; read-out: pGI50 (converted)): 2.29 µM
- CC50 (OVCAR-4; [6]): > 100 µM
- TGI (OVCAR-4; read-out: pTGI (converted)): 7.76 µM
- growth at 0.01 µM (SR): 97%
- growth at 100 µM (SK-OV-3): 86%
- growth at 0.1 µM (T47D): 89%
- growth at 100 µM (SF-268): 52%
- growth at 0.1 µM (NCI-H322M): 101%
